Experimental data taken from patent EP1785721A1, “Microbial, viral and mammalian susceptibility to agents that affect cell growth and metabolism, and mode of action of compounds” (Stratos Bio Ltd., priority 2005, dated 2007).
Read-outs that look alike come from different tables or passages of the source.

Columns and labels:
E.coli = test: MIC and MBC determination, two-fold serial dilutions assayed for turbidity; format: cell-based
Description: MIC and MBC's were determined as follows: • Two-fold serial dilutions of antibiotic in their respective media were incubated for 16-24h (depending on the bacterial strain) and assayed for turbidity.
(§1) A tube with a turbid suspension was not inhibited and a clear suspension with the lowest concentration of antibiotic showing no growth was designated MIC. MBC's were checked as follows: 0.01ml of each suspension from tubes showing no growth were added to agar plates and incubated for 48H; the lowest concentration of antibiotic from which no colonies formed was designated MBC.
To assay the nitrofurans at a concentration where the maximum sensitivity to E.coli could be achieved MIC's were determined for each compound. […] The respiratory medium was the one described previously at pH7. […] None of the nitrofurans were water soluble so prior to either MIC determination or incubation an accurately weighed sample of each compound was dissolved in 0.4ml DMSO and then 1.6ml H2O was added. When this solution was added to either tubes containing nutrient broth or to the fermentation vessels emulsions resulted. Good stirring minimised the problem in the calorimeter. No compensation was made for DMSO when diluting the samples as high concentrations of DMSO could falsify the results. […] Two types of responses were observed. […] No dependence of MIC on either RMM or power could be observed.

[1] = test system: Bordetella bronchiseptica; test: Flow microcalorimetry (p-t curves) of growing culture; format: cell-based
Description: (§2) • a) For B. pumilus a simple glucose/salts medium was employed with a glucose concentration of 0.1 % w/v. • b) For Bord. bronch. The above salts medium was used with the addition of nicotinic acid, methionine and glutamic acid. Glutamic acid was used at a concentration of 0.2% w/v. • c) For M. flavus a semidefined medium was employed, using the same salts as a B. pumilus but also Na-citrate, biotin and protease peptone. In the calorimeter a concentration of 0.4% protease peptone was used. All medium constituents (except protease) were analytical reagents. The calorimetric medium was therefore a final concentration of 100ml of either solution a, b or c freshly autoclaved for 15 mins exactly at 121°C, 151b/sq inch. Glucose was added to the appropriate solution after autoclaving.
(§3) To the vertical face of the vessel close to its base, equidistantly spaced around the circumference, ports were fitted for an oxygen electrode and for sampling/inoculation. The fermenter was closed with a flat flanged glass lid which had five ports accommodating respectively, gas inlet tube, gas exhaust (via air condenser), inlet and outlet flow-lines to and from the calorimeter. The fermenter and lid was sealed with a p.t.f.e. gasket and clamped with a metal clip. The fermenter was placed on a magnetic stirring unit in a water jacket which allowed circulation of the thermostatically controlled water at 30°C or 37°C. The fermenter which contained a Teflon coated magnetic stirring bar, was sterilised by autoclaving.
(§4) For a typical calorimetric incubation the medium was passed through the calorimetric vessel at the same flow rate and temperature as those used in the experiment to establish a steady baseline deflection. The following operations then took place to a strict timetable. The liquid nitrogen stored ampoule was thawed at 38°C for 3 min and then stirred for 20 sec on a whirlimixer. The bacterial suspension (0.5-1.5ml) volumes was inoculated into the medium (100ml) two minutes after completion of thawing. A Gilson automatic pipette was used for inoculation. The calorimeter inlet flow-line was placed in the incubation medium 30 seconds after inoculation. The flowing incubation medium reached the calorimetric vessel two min after inlet flow-line insertion. At this time the recording of the p-t curves was started. Eight min after inoculation the outflow from the calorimeter was returned to the fermenter (after the "baseline" medium had run to waste but before the inoculated medium ran to waste) thus making a closed system. Aeration was started as soon as the inlet tube was inserted in the fermenter. Microbiological purity of the culture was checked by plating out a sample of the culture at the end of each incubation on nutrient agar (lab M).
(§5) The output of calorimetric experiments is a plot of power (energy evolution per unit of time) as a function of time. The unit of power (p) is the Watt (W) and the unit of time is the hour (h). In some experiments seconds (s) were used as time unit.
After successful freezing of Bord. bronch p-t curves for growth in different concentrations of glutamic acid from 0.1%-0.5% were obtained. It was concluded that a medium containing 0.2% glutamic acid would be sufficient for a good deflection in the microcalorimeter minimising the possibility of the bacteria clogging in the microcalorimetric cell or in the teflon tubes leading to and from the microcalorimetric cell. A pH of 7 was used in all the following experiments as this is the optimum pH for polymyxin - lipid binding.
It was of vital importance to maintain a constant oxygen tension; this was achieved by using saturation concentrations of oxygen. It was decided to use the height of the small peak as full scale deflection for the antibiotic assay as the increase in power was exponential up to this point and the peak occurred at a convenient time. This choice of assay point was empirical. The inoculum was 1.1 ± 0.06 x 10^8 cfu/ml for all the microclalorimetric incubations. […]

Micrococcus flavus [2] = test: as above; format: cell-based; conditions: bacterial concentration printed '0?'
Description: as §2
To the vertical face of the vessel close to its base, equidistantly spaced around the circumference, ports were fitted for an oxygen electrode and for sampling/inoculation. The fermenter was closed with a flat flanged glass lid which had five ports accommodating respectively, gas inlet tube, gas exhaust (via air condenser), inlet and outlet flow-lines to and from the calorimeter. The fermenter and lid was sealed with a p.t.f.e. gasket and clamped with a metal clip. […]

respiring E.coli = test: Flow microcalorimetry (p-t curves) of respiring cells in glucose buffer; format: cell-based
Description: The respiration experiments were carried out in glucose buffer at different pH.
The nitrofurans only differed in the length of their side chains (e.g. methyl, propyl etc.).
To assay the nitrofurans at a concentration where the maximum sensitivity to E.coli could be achieved MIC's were determined for each compound. […] The respiratory medium was the one described previously at pH7. […] No compensation was made for DMSO when diluting the samples as high concentrations of DMSO could falsify the results.

Micrococcus flavus [3] = test: MIC and MBC determination, two-fold serial dilutions assayed for turbidity; format: cell-based
Description: as §1, with “MIC and MBC's were determined as follows: • Two-fold serial dilutions of antibiotic in their respective media were incubated for 16-24h (depending on the bacterial strain) and assayed for turbidity. A” for “A”

[4] = test system: Bordetella bronchiseptica; test: as above; format: cell-based
Description: as §1, with “MIC and MBC's were determined as follows: • Two-fold serial dilutions of antibiotic in their respective media were incubated for 16-24h (depending on the bacterial strain) and assayed for turbidity. A” for “A”

B. pumilus = test: MIC determination, two-fold serial dilutions assayed for turbidity; format: cell-based, Bacillus pumilus
Description: as §1, with “MIC and MBC's were determined as follows: • Two-fold serial dilutions of antibiotic in their respective media were incubated for 16-24h (depending on the bacterial strain) and assayed for turbidity. A” for “A”

Bacillus pumilus = test: Flow microcalorimetry (p-t curves) of growing culture; format: cell-based
Description: as §2, §3, §4, §5
P-t curves of B. pumilus at 30µV full scale deflection (471.15µW) show a logarithmic increase in power. […] After 10h growth the power output was: 17% for 0.05% glucose, 22% for 0.2% glucose and 18% for 0.1% glucose. It was decided to use 0.1% glucose for microcalorimetrically monitored growth experiments, because use of 0.2% glucose could result in the bacterium clumping in the calorimetric chamber or in the Teflon tubes leading to and from the calorimeter. In 0.05% glucose B. pumilus grew slightly slower and to a smaller percentage total deflection than in the 0.1 % glucose incubations. The p-t curve of 0.1 % glucose on 10µV (157.05µW full scale deflection) was obtained.

[5] = Animal case study, antibiotic treatment of a scratch to the eye; format: in vivo; conditions: 30 days of treatment, domestic cat with a scratch to the eye
Description: A domestic cat was given a mixture of antibiotics as eye drops in response to a scratch to the eye. […] Previously the cat had never been given milk (as many animals are allergic to cow's milk). The cat was now given full cream milk as part of a regimen to promote weight gain (the cat also continued to eat its usual amount of daily cat food throughout the period of weight loss). Initially weight was gained but within 24 hours weight loss resumed (presumably because the pathogenic bacteria/viruses had found a way of utilising lactose). An autopsy indicated bone-cancer as cause of death. The body wasting caused by the weight loss was very similar to that observed in early AIDS cases. However the cat had been regularly vaccinated against HTLV 1 through its 16 year life (and had never been ill in that period).

For NC[C@@H]1O[C@H](O[C@H]2[C@@H](O)[C@H](O[C@@H]3[C@@H](O)[C@H](N)C[C@H](N)[C@H]3O[C@H]3O[C@H](CN)[C@@H](O)[C@H](O)[C@H]3N)O[C@@H]2CO)[C@H](N)[C@@H](O)[C@@H]1O.O=S(=O)(O)O [Neomycin sulphate], the MBC (E.coli) was “NEO 5900 ug/ml”, the MIC (E.coli) was 500 µg/mL and the MIC (E.coli; listed as NEO) was “NEO 5900 ug/ml”. The “Observed effect on p-t curves” value ([1]; 0.25ug/ml added at 50 % of p-t curve) was “No effect on p-t curve”, the “Observed effect on p-t curves” value (Micrococcus flavus [2]; 4 ug/ml) was “No effect on p-t curve” and the “range of linear dose-response” value (respiring E.coli; respiration) was 10 to 100 µg/mL. The “Observed effect on p-t curves” value (respiring E.coli; respiration, 500 ug/ml) was “Increase in heat output”, the “range of linear relationship between dose and the reciprocal of increase in response from the control curve” value (respiring E.coli; respiring E.coli) was 20 to 100 µg/mL and the heat output (respiring E.coli; respiring E.coli, all concentrations) was “increased heat output”. The effect on power (respiring E.coli; respiring E.coli, pH 8) was “caused an increase in power”, the MIC (Micrococcus flavus [3]) was “MIC NEO 4 ug/ml” and the MIC [4] was “MIC NEO 0.25 ug/ml”. For the same compound, the “effect at MIC” value (B. pumilus; 5.1 x 10^6 cfu/ml) was “bacteriostatic”, the MIC (B. pumilus; 5.1 x 10^6 cfu/ml, inoculum used in the microcalorimetric incubations) was 2 µg/mL and the MIC (B. pumilus; inoculum not given) was “MIC NEO 1 ug/ml”. For the same compound, the MIC (B. pumilus; inoculum of 1x10^5 cfu/ml) was 0.1 µg/mL, the “effect at MIC” value (B. pumilus; inoculum of 1x10^5 cfu/ml) was “bacteriostatic” and the power output (Bacillus pumilus; 0.5 and 1 x MIC (1-2 µg/ml) added after an increase of 10% of full scale deflection) was “the same effect was observed”. For the same compound, the power output (Bacillus pumilus; 0.5 x MIC (1µg/ml) added after a 25% increase power output, 2-4h after addition) was “massive power output”, the power output (Bacillus pumilus; added after an increase in power output of 15% of full scale deflection) was “only marginally larger than that observed for the normal growth curve” and the heat output (Bacillus pumilus; concentrations of < 1ug/ml or in combinations with other antibiotics, organism not named at this place) was “increased heat output”. The power output (Bacillus pumilus; higher concentrations of antibiotic (above 1 x MIC), added after 10% of full scale deflection) was “a decrease in power output was observed”.
For CN[C@H](CC(C)C)C(=O)N[C@H]1C(=O)N[C@@H](CC(N)=O)C(=O)N[C@H]2C(=O)N[C@H]3C(=O)N[C@H](C(=O)N[C@H](C(=O)O)c4cc(O)cc(O)c4-c4cc3ccc4O)[C@H](O)c3ccc(c(Cl)c3)Oc3cc2cc(c3O[C@@H]2O[C@H](CO)[C@@H](O)[C@H](O)[C@H]2O[C@H]2C[C@](C)(N)[C@H](O)[C@H](C)O2)Oc2ccc(cc2Cl)[C@H]1O [vancomycin], the “effect of treatment on the eye” value [5] was “without any effect to the eye”.
In the case of Polymyxin B sulphate, the MBC (E.coli) was 6.3 µg/mL, the MIC (E.coli) was 6.3 µg/mL and the MBC (E.coli; listed as POL) was “POL 6.3ug/ml”. The MIC (E.coli; listed as POL) was “POL 6.3ug/ml”, the “Observed effect on p-t curves” value ([1]; 0.07 ug/ml added at 18 % of p-t curve) was “No effect on growth curve” and the response ([1]; 0.033 x MIC (0.07 µg/ml)) was “no response to the antibiotic was observed”. The Comments ([1]; 0.35 -2 ug/ml added at 18 % of p-t curve) was “All curves return to baseline confirmed bacteriocidal action”, the “Observed effect on p-t curves” value ([1]; 0.35 -2 ug/ml added at 18 % of p-t curve, 10 min after addition) was “Linear log dose response 10 min after addition of antibiotic CV 2.5%” and the p-t curve ([1]; 0.5 x MIC, within 10 min of addition) was “sharp decline in heat output”. The mode of action ([1]; at MIC values) was “bactericidal”, the “decline of the p-t curve” value ([1]; concentration larger than 3.5 x MIC) was “the declines were identical” and the “reversibility of the effect” value ([1]; most concentrations of antibiotic, decline in power decreased to a baseline value) was “irreversible”. For the same compound, the “time to observable response after addition of the antibiotic” value ([1]; usually) was no more than 5 min, the “Observed effect on p-t curves” value (Micrococcus flavus [2]; 2ug/ml) was “Slightly delayed peak” and the Comments (respiring E.coli; respiration, 6.3 ug/ml) was “Bacteriocidal action demonstrated”. The “Observed effect on p-t curves” value (respiring E.coli; respiration, 6.3 ug/ml) was “Reduced height of p-t curve initially and returned to baseline within I hour”, the “sensitivity of the assay” value (respiring E.coli; respiring E.coli) was 3 µg/mL and the “effect on p-t curve” value (respiring E.coli; respiring E.coli, pH 7) was “reduced the initial peak height and thereafter the p-t curve returned to baseline”. The MIC (Micrococcus flavus [3]) was “POL 2ug/ml”, the MBC [4] was “Ug/ml MIC & MBC 2 ug/ml” and the MIC [4] was “Ug/ml MIC & MBC 2 ug/ml”. The MIC ([4]; listed as POL) was “POL 2ug/ml”, the MBC ([4]; listed as polymyxin B sulphate) was 2 µg/mL and the MIC ([4]; listed as polymyxin B sulphate) was 2 µg/mL. For the same compound, the MIC (B. pumilus; inoculum not given) was “POL 20 ug/ml” and the “Observed effect on p-t curves” value (Bacillus pumilus; 20ug/ml, within 9 hours, bacterial concentration printed '0?') was “Within 9 hours growth was inhibited completely”.
